How the values were obtained:
Assay type in all cases: functional
NCI-H23 = test: Cytotoxicity against human NCI-H23 cells assessed as cell growth at 0.01 uM after 48 hrs by sulforhodamine B assay relative to control; settings: NCI-H23, 48 h, read-out: Activity
HCT-15 = test: Cytotoxicity against human HCT15 cells assessed as cell growth at 10 uM after 48 hrs by sulforhodamine B assay relative to control; settings: HCT-15, 48 h, read-out: Activity
Hs-578T = test: Cytotoxicity against human Hs 578T cells assessed as cell growth at 100 uM after 48 hrs by sulforhodamine B assay relative to control; settings: read-out: Activity
OVCAR-4 [1] = test: Cytotoxicity against human OVCAR4 cells assessed as cell growth at 10 uM after 48 hrs by sulforhodamine B assay relative to control; settings: OVCAR-4, 48 h, read-out: Activity
SF-539 [2] = test: Cytotoxicity against human SF539 cells assessed as cell growth at 1 uM after 48 hrs by sulforhodamine B assay relative to control; settings: SF-539, 48 h, read-out: Activity
NCI-H226 [3] = test: Cytotoxicity against human NCI-H226 cells assessed as cell growth at 100 uM after 48 hrs by sulforhodamine B assay relative to control; settings: NCI-H226, 48 h, read-out: Activity
M14 [4] = test: Cytotoxicity against human M14 cells assessed as cell growth at 10 uM after 48 hrs by sulforhodamine B assay relative to control; settings: M14, 48 h, read-out: Activity
M14 [5] = test: Cytotoxicity against human M14 cells assessed as growth inhibition after 48 hrs by sulforhodamine B assay; settings: M14, 48 h
SF-539 [6] = test: Cytotoxicity against human SF539 cells assessed as cell growth at 0.1 uM after 48 hrs by sulforhodamine B assay relative to control; settings: SF-539, 48 h, read-out: Activity
A498 = test: Cytotoxicity against human A498 cells assessed as cell growth at 100 uM after 48 hrs by sulforhodamine B assay relative to control; settings: A498, 48 h, read-out: Activity
NCI/ADR-RES [7] = test: Cytotoxicity against human NCI/ADR-RES cells assessed as cell growth at 0.1 uM after 48 hrs by sulforhodamine B assay relative to control; settings: read-out: Activity
OVCAR-4 [8] = test: Cytotoxicity against human OVCAR4 cells assessed as cell growth at 0.1 uM after 48 hrs by sulforhodamine B assay relative to control; settings: OVCAR-4, 48 h, read-out: Activity
SK-MEL-5 [9] = test: Cytotoxicity against human SK-MEL-5 cells assessed as cell growth at 1 uM after 48 hrs by sulforhodamine B assay relative to control; settings: SK-MEL-5, 48 h, read-out: Activity
OVCAR-8 [10] = test: Cytotoxicity against human OVCAR8 cells assessed as cell growth at 100 uM after 48 hrs by sulforhodamine B assay relative to control; settings: OVCAR-8, 48 h, read-out: Activity
HOP-62 = test: Cytotoxicity against human HOP62 cells assessed as growth inhibition after 48 hrs by sulforhodamine B assay; settings: HOP-62, 48 h
SW-620 = test: Cytotoxicity against human SW620 cells assessed as cell growth at 0.01 uM after 48 hrs by sulforhodamine B assay relative to control; settings: SW-620, 48 h, read-out: Activity
NCI/ADR-RES [11] = test: Cytotoxicity against human NCI/ADR-RES cells assessed as cell growth at 1 uM after 48 hrs by sulforhodamine B assay relative to control; settings: read-out: Activity
NCI-H460 [12] = test: Cytotoxicity against human NCI-H460 cells assessed as cell growth at 1 uM after 48 hrs by sulforhodamine B assay relative to control; settings: NCI-H460, 48 h, read-out: Activity
NCI/ADR-RES [13] = test: Cytotoxicity against human NCI/ADR-RES cells assessed as growth inhibition after 48 hrs by sulforhodamine B assay
OVCAR-3 = test: Cytotoxicity against human OVCAR3 cells assessed as cell growth at 1 uM after 48 hrs by sulforhodamine B assay relative to control; settings: OVCAR-3, 48 h, read-out: Activity
A549 = test: Cytotoxicity against human A549/ATCC cells assessed as cell growth at 100 uM after 48 hrs by sulforhodamine B assay relative to control; settings: A549, 48 h, read-out: Activity
SK-OV-3 = test: Cytotoxicity against human SKOV3 cells assessed as cell growth at 0.1 uM after 48 hrs by sulforhodamine B assay relative to control; settings: SK-OV-3, 48 h, read-out: Activity
786-0 = test: Cytotoxicity against human 786-0 cells assessed as growth inhibition after 48 hrs by sulforhodamine B assay; settings: 786-0, 48 h
MOLT-4 [14] = test: Cytotoxicity against human MOLT4 cells assessed as cell growth at 10 uM after 48 hrs by sulforhodamine B assay relative to control; settings: MOLT-4, 48 h, read-out: Activity
HL-60(TB) = test: Cytotoxicity against human HL-60(TB) cells assessed as cell growth at 1 uM after 48 hrs by sulforhodamine B assay relative to control; settings: HL-60, 48 h, read-out: Activity
NCI-H226 [15] = test: Cytotoxicity against human NCI-H226 cells assessed as cell growth at 0.01 uM after 48 hrs by sulforhodamine B assay relative to control; settings: NCI-H226, 48 h, read-out: Activity
U-251 [16] = test: Cytotoxicity against human U251 cells assessed as cell growth at 0.1 uM after 48 hrs by sulforhodamine B assay relative to control; settings: U-251, 48 h, read-out: Activity
MOLT-4 [17] = test: Cytotoxicity against human MOLT4 cells assessed as growth inhibition after 48 hrs by sulforhodamine B assay; settings: MOLT-4, 48 h; for CC50: read-out: LC50 (the source's name)
KM12 = test: Cytotoxicity against human KM12 cells assessed as cell growth at 100 uM after 48 hrs by sulforhodamine B assay relative to control; settings: KM12, 48 h, read-out: Activity
U-251 [18] = test: Cytotoxicity against human U251 cells assessed as cell growth at 100 uM after 48 hrs by sulforhodamine B assay relative to control; settings: U-251, 48 h, read-out: Activity
NCI-H460 [19] = test: Cytotoxicity against human NCI-H460 cells assessed as cell growth at 100 uM after 48 hrs by sulforhodamine B assay relative to control; settings: NCI-H460, 48 h, read-out: Activity
M14 [20] = test: Cytotoxicity against human M14 cells assessed as cell growth at 0.01 uM after 48 hrs by sulforhodamine B assay relative to control; settings: M14, 48 h, read-out: Activity
NCI-H460 [21] = test: Cytotoxicity against human NCI-H460 cells assessed as growth inhibition after 48 hrs by sulforhodamine B assay; settings: NCI-H460, 48 h
M14 [22] = test: Cytotoxicity against human M14 cells assessed as cell growth at 0.1 uM after 48 hrs by sulforhodamine B assay relative to control; settings: M14, 48 h, read-out: Activity
SK-MEL-5 [23] = test: Cytotoxicity against human SK-MEL-5 cells assessed as cell growth at 100 uM after 48 hrs by sulforhodamine B assay relative to control; settings: SK-MEL-5, 48 h, read-out: Activity
OVCAR-8 [24] = test: Cytotoxicity against human OVCAR8 cells assessed as cell growth at 0.1 uM after 48 hrs by sulforhodamine B assay relative to control; settings: OVCAR-8, 48 h, read-out: Activity

COc1ccc(-c2cc(/C=C/C(=O)c3ccc(OC)c(OC)c3)[nH]n2)cc1
growth at 0.01 µM (NCI-H23): 100%
growth at 10 µM (HCT-15): -53%
growth at 100 µM (Hs-578T): -26%
growth at 10 µM (OVCAR-4 [1]): -27%
growth at 1 µM (SF-539 [2]): 66%
growth at 100 µM (NCI-H226 [3]): -43%
growth at 10 µM (M14 [4]): -42%
GI50 (M14 [5]): 2.17 µM
LC50 (concentration killing 50% of cells) (M14 [5]): 13.8 µM
TGI (M14 [5]): 4.97 µM
growth at 0.1 µM (SF-539 [6]): 94%
growth at 100 µM (A498): -90%
growth at 0.1 µM (NCI/ADR-RES [7]): 107%
growth at 0.1 µM (OVCAR-4 [8]): 77%
growth at 1 µM (SK-MEL-5 [9]): 88%
growth at 100 µM (OVCAR-8 [10]): -66%
GI50 (HOP-62): 2.35 µM
LC50 (HOP-62): 35.3 µM
TGI (HOP-62): 6.17 µM
growth at 0.01 µM (SW-620): 99%
growth at 1 µM (NCI/ADR-RES [11]): 91%
growth at 1 µM (NCI-H460 [12]): 75%
GI50 (NCI/ADR-RES [13]): 3.44 µM
LC50 (NCI/ADR-RES [13]): > 100 µM
TGI (NCI/ADR-RES [13]): 24.8 µM
growth at 1 µM (OVCAR-3): 62%
growth at 100 µM (A549): -45%
growth at 0.1 µM (SK-OV-3): 109%
GI50 (786-0): 1.6 µM
LC50 (786-0): 5.96 µM
TGI (786-0): 3.09 µM
growth at 10 µM (MOLT-4 [14]): -10%
growth at 1 µM (HL-60(TB)): 86%
growth at 0.01 µM (NCI-H226 [15]): 83%
growth at 0.1 µM (U-251 [16]): 84%
GI50 (MOLT-4 [17]): 2.67 µM
TGI (MOLT-4 [17]): 8 µM
CC50 (MOLT-4 [17]): > 100 µM
growth at 100 µM (KM12): -79%
growth at 100 µM (U-251 [18]): -100%
growth at 100 µM (NCI-H460 [19]): -63%
growth at 0.01 µM (M14 [20]): 101%
GI50 (NCI-H460 [21]): 1.64 µM
LC50 (NCI-H460 [21]): 22.8 µM
TGI (NCI-H460 [21]): 4.34 µM
growth at 0.1 µM (M14 [22]): 105%
growth at 100 µM (SK-MEL-5 [23]): -100%
growth at 0.1 µM (OVCAR-8 [24]): 89%

COc1ccc(-c2cc(/C=C/C(=O)c3ccc(N)cc3)[nH]n2)cc1OC
growth at 0.01 µM (NCI-H23): 103%
growth at 10 µM (HCT-15): -27%
growth at 100 µM (Hs-578T): 4%
growth at 10 µM (OVCAR-4 [1]): 24%
growth at 1 µM (SF-539 [2]): 88%
growth at 100 µM (NCI-H226 [3]): -55%
growth at 10 µM (M14 [4]): -42%
GI50 (M14 [5]): 2.28 µM
LC50 (concentration killing 50% of cells) (M14 [5]): 15 µM
TGI (M14 [5]): 5.11 µM
growth at 0.1 µM (SF-539 [6]): 97%
growth at 100 µM (A498): -98%
growth at 0.1 µM (NCI/ADR-RES [7]): 104%
growth at 0.1 µM (OVCAR-4 [8]): 90%
growth at 1 µM (SK-MEL-5 [9]): 94%
growth at 100 µM (OVCAR-8 [10]): -86%
GI50 (HOP-62): 2.8 µM
LC50 (HOP-62): 32 µM
TGI (HOP-62): 9.67 µM
growth at 0.01 µM (SW-620): 99%
growth at 1 µM (NCI/ADR-RES [11]): 99%
growth at 1 µM (NCI-H460 [12]): 94%
GI50 (NCI/ADR-RES [13]): 6.21 µM
LC50 (NCI/ADR-RES [13]): > 100 µM
TGI (NCI/ADR-RES [13]): > 100 µM
growth at 1 µM (OVCAR-3): 92%
growth at 100 µM (A549): -76%
growth at 0.1 µM (SK-OV-3): 102%
GI50 (786-0): 1.88 µM
LC50 (786-0): 10.8 µM
TGI (786-0): 4.39 µM
growth at 10 µM (MOLT-4 [14]): 6%
growth at 1 µM (HL-60(TB)): 97%
growth at 0.01 µM (NCI-H226 [15]): 93%
growth at 0.1 µM (U-251 [16]): 95%
GI50 (MOLT-4 [17]): 3.11 µM
TGI (MOLT-4 [17]): 16.5 µM
CC50 (MOLT-4 [17]): > 100 µM
growth at 100 µM (KM12): -98%
growth at 100 µM (U-251 [18]): -96%
growth at 100 µM (NCI-H460 [19]): -76%
growth at 0.01 µM (M14 [20]): 95%
GI50 (NCI-H460 [21]): 2.03 µM
LC50 (NCI-H460 [21]): 10.6 µM
TGI (NCI-H460 [21]): 4.53 µM
growth at 0.1 µM (M14 [22]): 97%
growth at 100 µM (SK-MEL-5 [23]): -94%
growth at 0.1 µM (OVCAR-8 [24]): 99%

— ChEMBL document CHEMBL4138123, “Design, synthesis and biological evaluation of novel pyrazolochalcones as potential modulators of PI3K/Akt/mTOR pathway and inducers of apoptosis in breast cancer cells” (Eur J Med Chem, 2017)
